These results are taken from ChEMBL document CHEMBL3217502, “Synthesis of dual AChE/5-HT4 receptor multi-target directed ligands” (Medchemcomm, 2012).

The target in assay [1] is 5-hydroxytryptamine receptor 4 (Cavia porcellus, UniProt O70528). The assay is described as follows: Displacement of [3H]-GR113808 from guinea pig 5HT4 receptor by Grossman's method.
In a further assay the target is Acetylcholinesterase (Electrophorus electricus, UniProt O42275). The assay can be described thus: Inhibition of electric eel AChE using acetylthiocholine iodide as substrate preincubated for 5 mins before substrate addition measured for 10 mins by Ellman's method.
Chain of Acetylcholinesterase (O42275 whole entry): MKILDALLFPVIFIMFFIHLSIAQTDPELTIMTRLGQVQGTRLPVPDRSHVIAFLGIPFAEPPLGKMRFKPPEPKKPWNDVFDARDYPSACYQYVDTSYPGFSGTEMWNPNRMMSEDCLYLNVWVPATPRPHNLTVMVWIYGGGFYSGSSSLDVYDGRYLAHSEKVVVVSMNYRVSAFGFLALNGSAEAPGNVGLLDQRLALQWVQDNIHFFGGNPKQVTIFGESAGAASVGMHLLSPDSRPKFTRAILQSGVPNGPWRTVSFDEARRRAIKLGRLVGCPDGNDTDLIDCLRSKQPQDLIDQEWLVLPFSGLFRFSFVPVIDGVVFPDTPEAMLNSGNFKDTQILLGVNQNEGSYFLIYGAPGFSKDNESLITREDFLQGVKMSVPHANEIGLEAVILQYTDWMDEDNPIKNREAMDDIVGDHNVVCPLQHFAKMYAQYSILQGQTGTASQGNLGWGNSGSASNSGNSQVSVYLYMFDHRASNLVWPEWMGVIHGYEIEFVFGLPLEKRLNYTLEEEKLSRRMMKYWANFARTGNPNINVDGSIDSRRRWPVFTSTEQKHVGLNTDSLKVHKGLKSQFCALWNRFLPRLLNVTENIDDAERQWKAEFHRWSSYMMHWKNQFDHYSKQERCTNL
The target of assay [2] is 5-hydroxytryptamine receptor 4 (Homo sapiens) (UniProt Q13639). The assay can be described thus: Displacement of [3H]-GR113808 from human 5HT4E receptor at 10^-6 M after 30 mins by liquid scintillation counting.
Chain of 5-hydroxytryptamine receptor 4 (Homo sapiens) (Q13639 whole entry): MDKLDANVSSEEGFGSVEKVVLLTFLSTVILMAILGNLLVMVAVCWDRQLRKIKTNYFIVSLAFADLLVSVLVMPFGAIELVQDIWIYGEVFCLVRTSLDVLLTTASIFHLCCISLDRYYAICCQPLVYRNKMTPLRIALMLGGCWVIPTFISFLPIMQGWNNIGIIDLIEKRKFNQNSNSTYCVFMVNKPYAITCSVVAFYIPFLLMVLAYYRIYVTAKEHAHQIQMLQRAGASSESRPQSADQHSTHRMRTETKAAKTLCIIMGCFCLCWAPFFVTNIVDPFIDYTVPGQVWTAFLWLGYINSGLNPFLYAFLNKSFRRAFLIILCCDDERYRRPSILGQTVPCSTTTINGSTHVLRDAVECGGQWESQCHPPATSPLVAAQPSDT
Assay [3] shares this target. The assay is described as follows: Displacement of [3H]-GR113808 from human 5HT4E receptor at 10^-8 M after 30 mins by liquid scintillation counting.

Chain of 5-hydroxytryptamine receptor 4 (O70528 whole entry): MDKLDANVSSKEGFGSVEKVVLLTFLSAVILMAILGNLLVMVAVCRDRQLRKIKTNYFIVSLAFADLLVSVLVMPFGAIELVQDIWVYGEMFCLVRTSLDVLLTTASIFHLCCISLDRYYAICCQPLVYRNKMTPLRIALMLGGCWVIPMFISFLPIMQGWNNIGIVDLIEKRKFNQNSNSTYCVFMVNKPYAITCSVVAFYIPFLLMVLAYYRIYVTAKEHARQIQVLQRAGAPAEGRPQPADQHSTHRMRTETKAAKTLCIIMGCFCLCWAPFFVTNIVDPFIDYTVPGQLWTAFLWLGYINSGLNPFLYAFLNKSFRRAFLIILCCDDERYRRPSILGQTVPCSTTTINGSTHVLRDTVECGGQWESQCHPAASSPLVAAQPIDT

In the case of `c1ccc(CCCN2CCC(COc3nc4ccsc4n4cccc34)CC2)cc1`, affinity in assay [1] was put at a Ki of 75.8 nM.

As for `c1cc2c(OCC3CCN(CC4CCCCC4)CC3)nc3ccsc3n2c1`, it took 206 nM to reach half-maximal inhibition at Acetylcholinesterase (IC50). In addition, affinity in assay [1] was put at a Ki of 79.9 nM. Further, the inhibition (commonly the percentage by which the read-out fell short of the control) in assay [2] was 99%; in assay [3], 22%.

Regarding `c1ccc(CCN2CCC(COc3nc4ccsc4n4cccc34)CC2)cc1`, in assay [1], the Ki (commonly a measure of affinity in units of concentration, obtained from inhibition or displacement) came out at 49.8 nM.

In assay [1], `COc1ccc(CN2CCC(COc3nc4ccsc4n4cccc34)CC2)cc1` had an inhibition constant (Ki) of 216 nM.

On to `Cc1csc2nc(OCC3CCN(Cc4ccccc4)CC3)c3cccn3c12`, for which the IC50 (as a rule, the midpoint of a concentration-inhibition curve) against Acetylcholinesterase turned out to be 165 nM. For the same compound, in assay [1], the Ki is 22 nM. Moreover, the inhibition in assay [2] was 98%; in assay [3] it was 38%.

For `Fc1ccc(CN2CCC(COc3nc4ccsc4n4cccc34)CC2)cc1`, in assay [1], the affinity, expressed as Ki, was 99 nM.

In assay [1], `c1cc2c(OCC3CCN(CC4CC4)CC3)nc3ccsc3n2c1` yielded a Ki of 53 nM. Compared with the last compound, the Ki is about 1.9-fold lower.

`Cc1csc2nc(OCC3CCN(CC4CCCCC4)CC3)c3cccn3c12` gave an IC50 against Acetylcholinesterase of 95.8 nM. Besides, the Ki in assay [1] is 4.2 nM. In addition, the inhibition stood at 99% in assay [2] and 60% in assay [3].

As for `c1cc2c(OCC3CCN(CC4CCC4)CC3)nc3ccsc3n2c1`, in assay [1], the Ki was found to be 25.9 nM.

With `CCCN1CCC(COc2nc3scc(C)c3n3cccc23)CC1`, it took 5000 nM to reach half-maximal inhibition against Acetylcholinesterase (IC50). The Ki in assay [1] worked out at 6 nM.

As to `Cc1csc2nc(OCC3CCN(CC4CCCC4)CC3)c3cccn3c12`, the IC50 against Acetylcholinesterase is 553 nM. Besides, the affinity in assay [1], expressed as Ki, was 21.3 nM. In addition, the inhibition in assay [2] is 100%; in assay [3], 78%.

`c1cc2c(OCC3CCN(CC4CCCC4)CC3)nc3ccsc3n2c1` registered an IC50 against Acetylcholinesterase of 597 nM. This compound also registered a Ki in assay [1] of 44.8 nM. In addition, the inhibition in assay [2] came to 100%; in assay [3], 39%.

The compound `c1ccc(CN2CCC(CCOc3nc4ccsc4n4cccc34)CC2)cc1` returned an IC50 against Acetylcholinesterase of 561 nM.

Compound `c1cc2c(OCC3CCN(Cc4ccncc4)CC3)nc3ccsc3n2c1` yielded a Ki in assay [1] of 174 nM.

Take `c1ccc(CN2CCC(COc3nc4ccsc4n4cccc34)CC2)cc1`: the half-maximal inhibitory concentration (IC50) at Acetylcholinesterase was determined as 551 nM. Moreover, affinity in assay [1] was put at a Ki of 52.9 nM. In addition, the values for the inhibition in assay [2] and in assay [3] were 96% and 30%, respectively.
